Laboratory results as given in patent US8227508B2, “Dietary and pharmaceutical compositions containing carnosol and/or rosmanol and their uses” (DSM IP Assets B.V., priority 2006, dated 2012).

Legend:
[1] = system: mouse; assay: Four Plates Test; assay type: in vivo; conditions: 32 mg/kg p.o. −1 h (vehicle at −24 h and −5 h)
Text: The method, which detects anxiolytic activity, follows that described by Aron et al (1971, Neuropharmacology, 10:459-469). Anxiolytics (benzodiazepines) increase the number of punished crossings. Animals were placed individually in a white plastic enclosure containing a floor consisting of 4 metal plates connected to an electric shock generator (Apelex: type 011346). Each mouse was left to explore freely for 15 seconds. Then, every time it crossed from one plate to another, it received a weak electric shock (2.5 mA, 1.5 s). The number of punished crossings was counted during a 1 minute test. 15 mice were studied per group. The test was performed blind.
Carnosol was evaluated at 3 doses (200, 400, 600 mg/kg), administered p.o. 24 h, 5 h and 1 h before the test, and compared with a vehicle control (corn oil) group.
Clobazam (32 mg/kg p.o.), administered 1 h before the test, was used as reference substance. Mice in this group received additional administrations of vehicle at 24 h and 5 h before the test in order to maintain experimental blinding.

[2] = system: mouse; assay: Marble burying test; assay type: in vivo; conditions: 32 mg/kg i.p., −30 min
Protocol: The method applied here follows that described by Broekkamp et al. (1986). Mice (n=15 per treatment group) were individually placed in transparent plastic cages (33×21×18 cm) with 5 cm of sawdust on the floor and 25 marbles (diameter 1 cm) grouped in the centre of the cage. A second, up-turned, cage served as a lid. The number of marbles covered by sawdust (by at least two-thirds) was counted at the end of the 30-min test period. Tests were performed by investigators blind to the drug treatment protocol.
Prior to testing, all test cages and marbles were “impregnated” by leaving 10 naive mice in each cage for 15 minutes.
Carnosol (3, 10 and 30 mg/kg) and rosmanol (10, 30 and 100 mg/kg) were administered i.p. 30 min before the test, and compared with a vehicle control group. Fluoxetine (32 mg/kg), administered under the same experimental conditions, was used as a reference substance.

[3] = target: T1, human glycine transporter 1b (GlyT1) (Homo sapiens, UniProt P48067); assay: Glycine uptake inhibition in CHO cells expressing GlyT1; assay type: cell-based; conditions: 60 nM [3H]-glycine, read-out: IC50 for tritiated glycine uptake
T1 construct: expressed in transfected cells; host or cells: CHO
T1 sequence (P48067 1-652 isoform P48067-3): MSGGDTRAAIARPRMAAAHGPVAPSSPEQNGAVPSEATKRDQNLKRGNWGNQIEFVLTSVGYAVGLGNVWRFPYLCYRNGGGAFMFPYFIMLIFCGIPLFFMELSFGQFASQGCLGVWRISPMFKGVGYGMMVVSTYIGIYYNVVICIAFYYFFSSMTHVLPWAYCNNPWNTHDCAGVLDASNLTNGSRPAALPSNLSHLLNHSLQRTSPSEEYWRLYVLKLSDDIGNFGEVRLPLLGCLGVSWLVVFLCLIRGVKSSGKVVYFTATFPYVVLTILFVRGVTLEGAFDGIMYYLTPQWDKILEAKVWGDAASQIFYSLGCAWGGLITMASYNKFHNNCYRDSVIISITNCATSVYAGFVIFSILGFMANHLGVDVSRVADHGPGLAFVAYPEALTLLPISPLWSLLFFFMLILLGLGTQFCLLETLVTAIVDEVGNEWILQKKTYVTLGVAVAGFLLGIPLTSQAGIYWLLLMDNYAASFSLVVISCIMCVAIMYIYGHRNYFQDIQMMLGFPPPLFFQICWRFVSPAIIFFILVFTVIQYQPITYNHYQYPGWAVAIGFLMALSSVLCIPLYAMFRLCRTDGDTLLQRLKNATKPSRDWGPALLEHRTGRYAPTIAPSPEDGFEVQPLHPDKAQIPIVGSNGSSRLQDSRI
Protocol: CHO cells stably expressing the human glycine transporter 1b cDNA (GlyT1) were routinely grown in Dulbecco's Modified Eagle's Medium (Invitrogen, Carlsbad, USA) containing 10% dialysed foetal calf serum, penicillin, streptomycin, proline and the antibiotic G418. Cells were harvested by trypsinisation one day prior to the assay and were seeded in the above mentioned medium. Immediately prior to the assay, the medium was replaced by uptake buffer containing 150 mM NaCl, 1 mM CaCl2, 2.5 mM KCl, 2.5 mM MgCl2, 10 mM Glucose and 10 mM N-2-hydroxyethylpiperazine-N′-2-ethanesulfonic acid (HEPES buffer).
Glycine uptake into the cells was determined by addition of 60 nM radiolabelled [^3H]-glycine (Amersham Biosciences GE Healthcare, Slough, UK) and incubation for 30 minutes at room temperature. Following removal of unincorporated label by gentle washing three times with the above buffer, incorporated glycine was quantified by liquid scintillation counting.

[4] = system: mouse; assay: Porsolt's Forced Swim Test (FST); assay type: in vivo
Protocol: The Forced Swim Test (FST) was first reported in 1977 for screening of antidepressant-like compounds in rats (Porsolt et al 1977 Nature, 266:730-732) and, later, modified for testing mice (Porsolt et al 1977 Arch. Int. Pharmacodynamie, 229:327-336).
In two separate experiments, mice were tested following either i.p. or p.o. administration of carnosol. Mice were individually placed in a cylinder containing water (22° C.) from which they could not escape. The mice were placed in the water for 6 min and the duration of immobility during the last 4 min was measured. Ten to fifteen mice were studied per group. Carnosol was evaluated at 3, 10, 30 mg/kg body weight (i.p. 30 min before the test) or 200, 400, 600 mg/kg body weight (p.o., 24, 5 and 1 h before the test), and compared with vehicle control groups. Imipramine (32 mg/kg i.p., or p.o., respectively), administered under the same experimental conditions, was used as reference substance. Immobility and swimming time were assessed.

`CN1C(=O)CC(=O)N(c2ccccc2)c2cc(Cl)ccc21` [Clobazam, reference compound] was tested, and the “Number of punished crossings, % change from control” value [1] was “+118%” and the “Number of punished crossings, mean” value [1] was 6.1.
For `CNCCC(Oc1ccc(C(F)(F)F)cc1)c1ccccc1` (stereo not drawn) [Fluoxetine, fluoxetine, reference compound], the “Number of marbles buried (% change from control)” value [2] was −92%.
In the case of `CN(CC[C@@H](Oc1ccc(C(F)(F)F)cc1)c1ccccc1)CC(=O)O` [ORG24598, reference compound], the IC50 [3] is reported as 0.02 µM.
For `CN(C)CCCN1c2ccccc2CCc2ccccc21` [imipramine, reference compound], the “Duration of immobility (% change from control)” value ([4]; 32 mg/kg i.p., −30 min) was −80% and the “Duration of immobility (% change from control)” value ([4]; 32 mg/kg p.o., −24, −5, −1 h) was −48%.
